Assay results from patent US7056938B1, “Method for scavenging radicals with urocanic acid, derivatives and analogues” (Academisch Ziekenhuis Bij De Univ., priority 1999, dated 2006).

Test: deoxyribose (dR) degradation test, hydroxyl radical scavenging
Format: biochemical
Procedure: Trans-UCA, cis-UCA, related imidazoles and non-imidazole compounds were tested with regard to their ability to compete with deoxyribose to scavenge hydroxyl radicals. On exposure to hydroxyl radicals deoxyribose is degraded into malondialdehyde, which reacts with thiobarbituric acid to form a pink chromogen. Powerful hydroxyl-radical scavengers will compete with deoxyribose, resulting in a reduced amount of malondialdehyde. Ten compounds, UCA, UCA analogues, alanine and uric acid (FIG. 1) were tested on their ability to scavenge hydroxyl radicals.
Method: the deoxyribose (dR) degradation test. The test was analogous to an earlier described method. Briefly, the reactions were performed in 5 mL screw cap glass tubes in a final volume of 1.0 mL sodium phosphate buffer (50 mM; pH 7.2), containing 3.0 mM 2 deoxy-D-ribose, 0.5 mM hydrogen peroxide and one of the test compounds at graded concentrations. The reaction was started by the addition of premixed disodium EDTA and ferrous iron solution (final concentrations 0.5 mM and 0.2 mM, respectively). The mixture was left for 15 minutes at room temperature. After addition of 1.0 mL 1% thiobarbituric acid in 50 mM NaOH and 0.75 mL 2.8% trichloroacetic acid, the tubes were heated for 20 minutes in a boiling water bath. The pink color was read at 532 nm and reciprocal absorption values were plotted against the concentration of the test compound after subtraction of appropriate blanks. A series of six duplicate determinations from test compound dilutions was employed to construct a graph slope for the calculation of a rate constant value. The mean, SD, number of rate constants and the percentage of inhibition of deoxyribose degradation, calculated for each test compound, are listed. Results. All second-order rate constants for reaction with hydroxyl radicals and, in addition, the percentage inhibition of deoxyribose degradation with equimolar concentrations (3 mM) of scavenger are summarized in Table 1. Trans-UCA and cis-UCA are substantially more powerful in scavenging hydroxyl radicals (8.0 and 7.1×10^3 M^−1,s^−1, respectively), than the other 4-(5-)-substituted imidazoles, including L-histidine (2.6×10^2 M^−1,s^−1). L-histidine, the precursor of UCA, was included as a known moderate scavenger with structural similarities to UCA. L-alanine was used as a known poor scavenger. Trans-FAA was tested as a non-imidazole acrylic acid derivative, having a furan ring instead.
FIG. 2. A determination of the second order rate constants of trans-UCA and cis-UCA with hydroxyl radicals. The rate constant was derived from the slope of the line (k=slope×kdR×[dR]×A0), where A0 is the absorbance, measured in the absence of hydroxyl radical scavenger. KdR was taken as 3.1×10^9 M^−1,s^−1, derived from pulse radiolysis studies, and [dR]=3 mM. […] The other scavengers were studied similarly.

SMILES: O=C(O)/C=C/c1cnc[nH]1 [trans-Urocanic acid, Trans-urocanic acid]
- INHIBITION of DEOXYRIBOSE DEGRADATION ([SCAVENGER] = [DEOXYRIBOSE] = 3 Mm): 67%
- SECOND ORDER RATE CONSTANT for reaction with hydroxyl radicals (mean of n slopes, sodium phosphate buffer pH 7.2): 8e+09 M⁻¹ s⁻¹
- second order rate constant in the particular set of FIG. 2 (single set of FIG. 2, kdR 3.1×10^9, [dR]=3 mM): 8.49 ×10^9 M^−1,s^−1
